Experimental data taken from US20100166727A1, “S-Adenosylmethionine And Methylthioadensosine In Chemoprevention And Treatment Of Colon Polyps And Cancer” (UNIVERSITY OF SOUTHERN CALIFORNIA, priority 2007, published 2010).
Entries after “also recorded” stand apart in the source; their conditions may differ.

What was measured:
colon cancer cells = settings: by lowering c-FLIP expression; cited from earlier work
MAT2β [1] = assay: Colonic MAT2β mRNA in mice fed SAMe or MTA; assay type: in vivo; settings: 75 mg/kg/d MTA, 6 days
Description: FIG. 30. Effects of oral SAMe and MTA on colonic mRNA levels of MAT2A, MAT2 β, and […]. Mice were fed SAMe (150 to 450 mg/kg/d) or MTA (75 or 150 mg/kg/d) in drinking water for 6 days. Colonic mucosa was scrapped off and gene expression measured by real-time PCR.

MAT2A [2] = assay: Intestinal MAT2A expression in mice given SAMe or MTA in drinking water; assay type: in vivo
Description: FIG. 30. Effects of oral SAMe and MTA on colonic mRNA levels of MAT2A, MAT2 β, and cFLIPL. Mice were fed SAMe (150 to 450 mg/kg/d) or MTA (75 or 150 mg/kg/d) in drinking water for 6 days. Colonic mucosa was scrapped off and gene expression measured by real-time PCR.
Three-month old male C57/B6 mice were fed ad libitum a standard diet (Harland Tekiad irradiated mouse diet 7912, Madison, Wis.), caged individually and had free access to water supplemented with SAMe ([…]), MTA (75 mg/kg/d), phosphate buffered saline (vehicle for SAMe) or DMSO (0.2%, vehicle for MTA) for 6 days. SAMe and MTA were made fresh daily. The amount of water intake, body weight, and animal behavior were closely monitored. After 6 days, animals were sacrificed, intestine was cut open along the longitudinal axis, and mucosa was stripped from the intestine (46). Mucosa was weighed and a portion processed for SAMe measurement as described below, the rest snap frozen for subsequent RNA extraction.
(§1) Total RNA was isolated by the EZgeno total RNA isolation kit (Genemega, San Giego, Calif.), and subjected to reverse transcription (RT) by using M-MLV Reverse transcriptase (Invitrogen). 2 μl of RT product was subjected to quantitative real-time PCR analysis. The primers and TaqMan probes for MAT2A, MAT2β and Universal PCR Master Mix were purchased from ABI (Foster City, Calif.). Hypoxanthine phosphoribosyl-transferase 1 (HPRT1) and ubiquitin C (UBC) were used as housekeeping genes (48). The thermal profile consisted of 1 cycle at 95° C. for 15 minutes followed by 40 cycles at 95° C. for 15 seconds and at 60° C. for 1 minute. The expression of MAT2A and MAT2β was checked by normalizing the Ct of MAT2A and MAT2β to that of the control housekeeping gene (HPRT1 or UBC) (49). The delta Ct obtained was used to find the relative expression of MAT genes according to the formula: Relative expression=2·^ΔCt, where ΔCt=ΔCt of MAT genes in colon cancer or treated cells—ΔCt of MAT genes in normal colon or control cells.

Bcl-xL = Bcl-xL mRNA level in HT-29 cells; assay type: cell-based, human; settings: MTA 1 mM, 6 hrs
Description: SAMe and MTA induce apoptosis in liver cancer cells by the mitochondrial pathway (14). […] In liver cancer cells, SAMe and MTA induced selectively expression of Bcl-xs, a pro-apoptotic protein (67). We examined whether the same occurs in HT-29 cells. After 6 hrs of MTA (1 mM) treatment, Bcl-xL mRNA level fell by 53% (47±4% of control, results are mean±SE from 4 experiments, p<0.0005). […] This makes these agents particularly attractive in targeting colon cancer cells.

[3] = Stability of SAMe and MTA in culture medium without cells and in water; assay type: physicochemical; settings: culture medium at 37° C., MTA 1 mM
Description: FIG. 12. […] SAMe (A) and MTA (B) levels were measured in culture medium without cells with starting SAMe concentrations ranging from 1 to 5 mM and MTA concentration at 1 mM.
To test whether the mitogens-induce increase in. MAT2A is to provide increased SAMe necessary for polyamine synthesis in growing cells, SAMe and polyamine levels were measured following treatment of HT-29 cells with mitogens.

MAT2A [4] = assay: MAT2A expression in NCM460 cells; assay type: cell-based, human; settings: 5 mM SAMe or 1 mM MTA, 6 hrs
Description: as §1
NCM460 cell line was originally established in 1996 as the first non-malignant colonic epithelial cell line derived from the transverse colon (43). When first developed, cells formed both monolayer and in suspension, express villin and cytokeratin staining (43). […] The NCM460 cells in monolayer have features of transverse colon crypt cells (69). […]

SPD syn = SPD syn expression by real-time PCR in HT-29 cells; assay type: cell-based, human
[5] = tested on: spermine synthase (SPM syn); assay: SPM syn expression by real-time PCR in HT-29 cells; assay type: cell-based, human
HT-29 cells [6] = assay: Cellular SAMe and MTA levels in HT-29 cells; assay type: cell-based, human
Description: (§2) HT-29 and RKO cells were obtained from the Cell Culture Core of the USC Liver Disease Research Center and grown according to instructions provided by the American Type Culture Collection (ATCC, Rockville, Md.). Prior to treatment with growth factors, SAMe or MTA, medium was changed to 0.1% FBS overnight.
(§3) Cellular SAMe and MTA levels were measured (51) and polyamine levels were determined (52).

[7] = Tolerability of oral SAMe and MTA in mice; assay type: in vivo; settings: oral in drinking water, 6 days; weight gain and water consumption similar to controls
Source text: SAMe and MTA were made fresh daily. The amount of water intake, body weight, and animal behavior were closely monitored. After 6 days, animals were sacrificed, intestine was cut open along the longitudinal axis, and mucosa was stripped from the intestine (46). Mucosa was weighed and a portion processed for SAMe measurement as described below, the rest snap frozen for subsequent RNA extraction.

MAT2A [8] = assay: MAT2A mRNA levels by real-time PCR in HT-29 cells; assay type: cell-based, human
Description: as §2
RNA interference (RNAi) experiments were performed using Lipofectamine RNAiMax (Invitrogen) according to the manufacturer's instructions. Small interfering RNA (siRNA) oligonucleotides for MAT2A and scrambled siRNA were synthesized by the USC Norris Comprehensive Cancer Center Microchemical Core Laboratory, and annealed to form duplexes. Stealth RNAi for MAT2A and Stealth RNAi negative control duplexes were synthesized by Invitrogen (Carlsbad, Calif.). The following siRNA sequences were used: si-MAT2A #1, 5′-[…]-3′ (sense) and 5′-[…]-3′ (antisense); si-control with scrambled sequence (negative control siRNA having no perfect matches to known human genes), 5′-[…]dTdT-3′ (sense) and 5% […]dTdT-3′ (antisense); stealth RNAi-MAT2A #5, 5′-[…]-3′ (sense) and 5′-[…]-3′ (antisense). […]
as §1

NCM460 cells = assay: Toxicity and apoptosis in NCM460 normal colonic epithelial cells; assay type: cell-based, human
Description: In these experiments the total treatment duration was limited to 16 hrs to avoid the apoptotic effect. […] Apoptosis was measured by Hoechst staining or Annexin V and propidium iodide staining on flow cytometry.

c-FLIP = c-FLIP mRNA level by real-time PCR in HT-29 cells; assay type: cell-based, human; settings: SAMe 2 mM, MTA 1 mM, 6 hrs, mean±SE
[9] = tested on: ornithine decarboxylase (ODC); assay: ODC expression by real-time PCR in HT-29 cells; assay type: cell-based, human
MAT2A [10] = assay: MAT2A mRNA levels by real-time PCR in RKO cells; assay type: cell-based, human; settings: RKO cells, growth factor 100 ng/ml
Description: as §2
RNA interference (RNAi) experiments were performed using Lipofectamine RNAiMax (Invitrogen) according to the manufacturer's instructions. Small interfering RNA (siRNA) oligonucleotides for MAT2A and scrambled siRNA were synthesized by the USC Norris Comprehensive Cancer Center Microchemical Core Laboratory, and annealed to form duplexes. Stealth RNAi for MAT2A and Stealth RNAi negative control duplexes were synthesized by Invitrogen (Carlsbad, Calif.). The following siRNA sequences were used: si-MAT2A #1, 5′-[…]-3′ (sense) and 5′-[…]-3′ (antisense); si-control with scrambled sequence (negative control siRNA having no perfect matches to known human genes), 5′-[…]dTdT-3′ (sense) and 5% […]dTdT-3′ (antisense); stealth RNAi-MAT2A #5, 5′-[…]-3′ (sense) and 5′-[…]-3′ (antisense). Transfection was allowed to proceed 72 hours before collection for different assays.
as §1

MAT2β [11] = assay: MAT2β mRNA levels by real-time PCR in HT-29 cells; assay type: cell-based, human; settings: HT29 cells, growth factor 100 ng/ml
Description: as §2, §1

MAT2β [12] = assay: MAT2β (total, V1, V2) mRNA levels by real-time PCR in RKO cells; assay type: cell-based, human; settings: growth factor 100 ng/ml
Description: as §2
as §1, with “The delta Ct obtained was used to find the relative expression of MAT genes according to the formula: Relative expression=2·^ΔCt, where ΔCt=ΔCt of MAT genes in colon cancer or treated cells—ΔCt of MAT genes in normal colon or control cells.” left out
To better understand functional differences between the two MAT2β variants, we created vectors expressing either V1 or V2 using the mammalian expression vector pcDNA3.1D/V5-His/TOPO vector (Invitrogen). […] Cell growth was measured by 3H-thymidine incorporation into DNA. […]

HT-29 cells [13] = assay: Polyamine levels in HT-29 cells; assay type: cell-based, human; settings: 6 hrs, mitogen 100 ng/ml
Description: as §2, §3

[14] = 75 mg/kg/d in drinking water, six days

Molecule: O=c1[nH]cc(F)c(=O)[nH]1 [5-FU, 5-fluorouracil]
- TRAIL-induced apoptosis (colon cancer cells): sensitize colon cancer cells to TRAIL-induced apoptosis

Molecule: CSC[C@H]1O[C@@H](n2cnc3c(N)ncnc32)[C@H](O)[C@@H]1O [MTA, methylthioadenosine]
- inhibition of MAT2β expression (MAT2β [1]): 60%
- MAT2A expression, colon (MAT2A [2]; [14]): 87 ± 20 % of control MAT2A mRNA levels
- MAT2A expression, proximal small intestine (MAT2A [2]; [14]): 82 ± 2 % of control MAT2A mRNA levels
- inhibition in colonic MAT2A mRNA level (MAT2A [2]; MTA 75 mg/kg/d, 6 days): 85%
- decrease of MAT2A expression in proximal small intestine (MAT2A [2]; SAMe 150 mg/kg/d, MTA 75 mg/kg/d, six days): 20%
- fall of Bcl-xL mRNA level (Bcl-xL): 53%
- Bcl-xL mRNA level (Bcl-xL; mean±SE from 4 experiments): 47±4 % of control
- stability [3]: highly stable; also recorded: no change in 24 hrs
- reduction of MAT2A expression (MAT2A [4]): 40%
- lowering of spermidine synthase mRNA level (SPD syn; MTA treatment for 6 hrs): 30%
- lowering of spermine synthase mRNA level ([5]; MTA treatment for 6 hrs): 30%
- MTA level (HT-29 cells [6]; 6 hrs, MTA 1 mM): 0.652 ± 0.123 nmol/mg protein
- SAMe level (HT-29 cells [6]; 6 hrs, MTA 1 mM): 0.81 ± 0.09 nmol/mg protein
- MTA level (HT-29 cells [6]; 16 hrs, MTA 1 mM): 0.689 ± 0.108 nmol/mg protein
- SAMe level (HT-29 cells [6]; 16 hrs, MTA 1 mM): 0.54 ± 0.01 nmol/mg protein
- tolerability / toxicity [7]: well tolerated; also recorded: no apparent toxicity
- reduction of baseline expression of MAT2A (MAT2A [8]; SAMe 5 mM or MTA 1 mM, 6 hrs, HT29 cells): 60%
- toxicity in NCM460 cells (NCM460 cells; SAMe 0.2 to 2 mM, MTA 0.2 to 5 mM): did not cause any toxicity
- apoptosis in NCM460 cells (NCM460 cells; SAMe up to 2 mM, MTA up to 5 mM): do not cause apoptosis
- c-FLIP mRNA level (c-FLIP): 47±4 % of control
- lowering of ornithine decarboxylase (ODC) mRNA level ([9]; MTA treatment for 6 hrs): 30%

Molecule: Leptin: growth factor implicated in colon cancer growth and invasion
- MAT2A mRNA levels after growth factor (MAT2A [10]): near doubling
- MAT2β expression after growth factor (MAT2β [11]): not affected
- MAT2β expression after growth factor (MAT2β [12]): not affected
- SPD syn expression (SPD syn; 6 hrs, mitogen 100 ng/ml): 2.3 ± 0.25 fold of control
- SPM syn expression ([5]; 6 hrs, mitogen 100 ng/ml): 1.0 ± 0.05 fold of control
- MTA level (HT-29 cells [6]; 6 hrs, mitogen 100 ng/ml): 0.058 ± 0.010 nmol/mg protein
- SAMe level (HT-29 cells [6]; 6 hrs, mitogen 100 ng/ml): 0.48 ± 0.04 nmol/mg protein
- MTA level (HT-29 cells [6]; 16 hrs, mitogen 100 ng/ml): 0.064 ± 0.015 nmol/mg protein
- SAMe level (HT-29 cells [6]; 16 hrs, mitogen 100 ng/ml): 0.63 ± 0.02 nmol/mg protein
- MAT2A mRNA levels after growth factor (MAT2A [8]; HT-29 cells, growth factor 100 ng/ml): near doubling
- ODC expression ([9]; 6 hrs, mitogen 100 ng/ml): 1.6 ± 0.09 fold of control
- Putrescine (HT-29 cells [13]): 0.27 ± 0.02 nmol/mg protein
- Spermidine (HT-29 cells [13]): 2.62 ± 0.02 nmol/mg protein
- Spermine (HT-29 cells [13]): 14.62 ± 2.70 nmol/mg protein
